From PubChem BioAssay (NCI)
“And” between values parts separate entries of the source, which are not always exact repeats. Equal entries are not always repeated.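 All cell lines were grown in 96-well plates and treated with compound for 48 hours. GI50 is the concentration that inhibits growth by half. TGI: total growth inhibition.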

Experiments:
Assay in all cases: growth of human tumour cells (NCI), 48 h
[1] = tested on: PC-3 prostate
[2] = tested on: SR leukemia
[3] = tested on: MDA-MB-231 breast
[4] = tested on: SF-268 CNS
[5] = tested on: LOX IMVI melanoma
[6] = tested on: MALME-3M melanoma
[7] = tested on: KM12 colon
[8] = tested on: UACC-257 melanoma
[9] = tested on: DU-145 prostate
[10] = tested on: NCI-H460 lung
[11] = tested on: SK-MEL-5 melanoma

Compound	TGI [1]	TGI [2] [µM]	TGI [3]	TGI [4]	TGI [5]	TGI [6]	TGI [7]	TGI [8]	TGI [9]	TGI [10]	TGI [11]	GI50 [1]	GI50 [2]	GI50 [3]	GI50 [8]	GI50 [9]
O=C(O)CN(CCNC(=O)OCC1c2ccccc2-c2ccccc21)CCNC(=O)OCC1c2ccccc2-c2ccccc21	49 µM	50.2	31.9 µM	39.8 µM	32.4 µM	38.9 µM	34.7 µM	68.8 µM	35.8 µM	41.2 µM	36.8 µM					
CC1(O)CC(C(F)(F)F)(C(F)(F)F)OC1=O (centres undefined)	> 10 µM	> 10	> 10 µM	> 10 µM	> 10 µM	> 10 µM	> 10 µM	> 10 µM	> 10 µM	> 10 µM	> 10 µM					
O=C1/C(=C/c2ccccc2)N=C(c2ccccc2)N1n1c(-c2ccccc2)nc2ccccc2c1=O	> 100 µM	> 100	> 100 µM	> 100 µM	> 100 µM	> 100 µM	> 100 µM	> 100 µM	> 100 µM	> 100 µM	> 100 µM					
C=C1CC(COc2cc(=O)oc3ccccc23)(c2ccccc2)OC1=O (centres undefined)	5.9 µM	> 28	11.9 µM	29.7 µM	3.2 µM	3.11 µM	12.7 µM	6.65 µM	5.74 µM	23.7 µM	3.35 µM					
COc1ccccc1Nc1nc(N)nc(N)c1N=O	> 100 µM	> 100	> 100 µM	> 100 µM	> 100 µM	> 100 µM	> 100 µM	> 100 µM	> 100 µM	> 100 µM	> 100 µM					
C=C(C)C12CC(COC(=O)c3ccccc3)C34OC5(OC1C3C1OC1(CO)C(O)C1(O)C(OC(=O)c3ccccc3)C(C)C(C(C)CCCCCCC5O)C14)O2 (centres undefined)	> 100 µM	> 31.6	> 100 µM	> 100 µM	> 100 µM	> 100 µM	> 100 µM	> 100 µM	> 100 µM	> 100 µM	> 100 µM					
CC(=O)OCC1OC(OC(C)(C)CC/C=C(\C)[C@@H]2C/C=C(\C)CC/C=C(\C)CC2)C(O)C(O)C1OC(C)=O (some centres undefined)	> 94.8 µM and 25.8 µM	> 100	> 100 µM and 38.6 µM	98.7 µM and 38.3 µM	33.5 µM and 54.1 µM	56.4 µM and 34.5 µM	> 59.7 µM and 36.8 µM	> 100 µM and 38.5 µM	> 100 µM and 32.1 µM	35.3 µM and 61.8 µM	> 83.7 µM and 34.6 µM	35.8 µM and 13.1 µM	36.3 µM and > 100 µM	> 61.2 µM and 18.9 µM	99.3 µM and 19.1 µM	> 76.3 µM and 17 µM
CN(C)CCCOC(=O)C(c1ccccc1)C1(O)CCSCC1 (centres undefined)	> 100 µM	> 100	> 100 µM	> 100 µM	> 100 µM	> 100 µM	> 100 µM	> 100 µM	> 100 µM	> 100 µM	> 100 µM					
CN(CCC#N)c1ccc(/C=C2\SC(=S)NC2=O)cc1	> 100 µM	> 100	> 100 µM	> 100 µM	36.2 µM	> 100 µM	> 100 µM	> 100 µM	> 100 µM	> 100 µM	> 100 µM					
NC(C(F)(F)F)(C(F)(F)F)P(=O)(Cc1ccccc1)Cc1ccccc1	> 100 µM	> 100	> 100 µM	> 100 µM	> 100 µM	> 100 µM	> 100 µM	> 100 µM	> 100 µM	> 100 µM	> 100 µM					
Nc1ccc2nc(-c3ccccn3)c(-c3ccccn3)nc2c1	> 100 µM	> 100	> 100 µM	> 100 µM	> 100 µM	> 100 µM	> 100 µM	> 100 µM	> 100 µM	> 100 µM	> 100 µM					
O=C1CCC[C@@H]2NC[C@@H](c3ccc4c(c3)OCO4)[C@H]12	> 25 µM	> 25	> 25 µM	> 25 µM	> 25 µM	> 25 µM	> 25 µM	> 25 µM	> 25 µM	> 25 µM	> 25 µM					
CC(C)=CCOC(=O)C(C)=[N+]=[N-]	> 100 µM	> 100	> 100 µM	> 100 µM	> 100 µM	> 100 µM	> 100 µM	> 100 µM	> 100 µM	> 100 µM	> 100 µM					
Brc1ccc(CCNCCN2CCCCC2)cc1	31.7 µM	> 100	21.4 µM	33.3 µM	27.6 µM	31.7 µM	30.2 µM	28.3 µM	> 100 µM	27.8 µM	20.6 µM					
